# From ChEMBL document CHEMBL2413072, “Synthesis and in vitro anticancer studies of novel C-2 arylidene congeners of lantadenes” (2013)
# Tests used:
# Type in all cases: functional
# [1] = system: K562; test: Growth inhibition of human K562 cells assessed as cell growth at 10 uM by sulforhodamine B assay; conditions: read-out: Activity
# [2] = system: T47D; test: Growth inhibition of human T47D cells assessed as growth inhibition at 10 uM by sulforhodamine B assay; conditions: read-out: GI
# [3] = system: BT-549; test: Growth inhibition of human BT549 cells assessed as growth inhibition at 10 uM by sulforhodamine B assay; conditions: read-out: GI
# [4] = system: MDA-MB-231; test: Growth inhibition of human MDA-MB-231 cells assessed as growth inhibition at 10 uM by sulforhodamine B assay; conditions: read-out: GI
# [5] = system: MCF7; test: Growth inhibition of human MCF7 cells assessed as growth inhibition at 10 uM by sulforhodamine B assay; conditions: read-out: GI
# [6] = system: DU-145; test: Growth inhibition of human DU145 cells assessed as growth inhibition at 10 uM by sulforhodamine B assay; conditions: read-out: GI
# [7] = system: PC-3; test: Growth inhibition of human PC3 cells assessed as growth inhibition at 10 uM by sulforhodamine B assay; conditions: read-out: GI
# [8] = system: UO-31; test: Growth inhibition of human UO31 cells assessed as growth inhibition at 10 uM by sulforhodamine B assay; conditions: read-out: GI
# [9] = system: CAKI-1; test: Growth inhibition of human CAKI-1 cells assessed as growth inhibition at 10 uM by sulforhodamine B assay; conditions: read-out: GI
# [10] = Growth inhibition of human NCI-ADR-RES cells assessed as growth inhibition at 10 uM by sulforhodamine B assay; conditions: read-out: GI
# [11] = system: UACC-257; test: Growth inhibition of human UACC257 cells assessed as growth inhibition at 10 uM by sulforhodamine B assay; conditions: read-out: GI
# [12] = system: SK-MEL-2; test: Growth inhibition of human SK-MEL-2 cells assessed as growth inhibition at 10 uM by sulforhodamine B assay; conditions: read-out: GI
# [13] = system: SK-MEL-28; test: Growth inhibition of human SK-MEL-28 cells assessed as growth inhibition at 10 uM by sulforhodamine B assay; conditions: read-out: GI
# [14] = system: MDA-MB-435; test: Growth inhibition of human MDA-MB-435 cells assessed as growth inhibition at 10 uM by sulforhodamine B assay; conditions: read-out: GI
# [15] = system: M14; test: Growth inhibition of human M14 cells assessed as growth inhibition at 10 uM by sulforhodamine B assay; conditions: read-out: GI
# [16] = system: U-251; test: Growth inhibition of human U251 cells assessed as growth inhibition at 10 uM by sulforhodamine B assay; conditions: read-out: GI
# [17] = system: SNB-75; test: Growth inhibition of human SNB75 cells assessed as growth inhibition at 10 uM by sulforhodamine B assay; conditions: read-out: GI
# [18] = system: SNB-19; test: Growth inhibition of human SNB19 cells assessed as growth inhibition at 10 uM by sulforhodamine B assay; conditions: read-out: GI
# [19] = system: SF-539; test: Growth inhibition of human SF539 cells assessed as growth inhibition at 10 uM by sulforhodamine B assay; conditions: read-out: GI
# [20] = system: SF-268; test: Growth inhibition of human SF268 cells assessed as growth inhibition at 10 uM by sulforhodamine B assay; conditions: read-out: GI
# [21] = system: KM12; test: Growth inhibition of human KM12 cells assessed as growth inhibition at 10 uM by sulforhodamine B assay; conditions: read-out: GI
# [22] = Growth inhibition of human HCC2998 cells assessed as growth inhibition at 10 uM by sulforhodamine B assay; conditions: HCC 2998, read-out: GI
# [23] = system: COLO 205; test: Growth inhibition of human COLO205 cells assessed as growth inhibition at 10 uM by sulforhodamine B assay; conditions: read-out: GI
# [24] = system: NCI-H522; test: Growth inhibition of human NCI-H522 cells assessed as growth inhibition at 10 uM by sulforhodamine B assay; conditions: read-out: GI
# [25] = system: A549; test: Growth inhibition of human A549/ATCC cells assessed as growth inhibition at 10 uM by sulforhodamine B assay; conditions: read-out: GI
# [26] = system: SR; test: Growth inhibition of human SR cells assessed as growth inhibition at 10 uM by sulforhodamine B assay; conditions: read-out: GI
# [27] = system: T47D; test: Growth inhibition of human T47D cells assessed as cell growth at 10 uM by sulforhodamine B assay; conditions: read-out: Activity
# [28] = system: BT-549; test: Growth inhibition of human BT549 cells assessed as cell growth at 10 uM by sulforhodamine B assay; conditions: read-out: Activity
# [29] = Growth inhibition of human Hs 578T cells assessed as cell growth at 10 uM by sulforhodamine B assay; conditions: read-out: Activity
# [30] = system: MDA-MB-231; test: Growth inhibition of human MDA-MB-231 cells assessed as cell growth at 10 uM by sulforhodamine B assay; conditions: read-out: Activity
# [31] = system: MCF7; test: Growth inhibition of human MCF7 cells assessed as cell growth at 10 uM by sulforhodamine B assay; conditions: read-out: Activity
# [32] = system: PC-3; test: Growth inhibition of human PC3 cells assessed as cell growth at 10 uM by sulforhodamine B assay; conditions: read-out: Activity
# [33] = system: SN12C; test: Growth inhibition of human SN12C cells assessed as cell growth at 10 uM by sulforhodamine B assay; conditions: read-out: Activity
# [34] = system: RXF 393; test: Growth inhibition of human RXF393 cells assessed as cell growth at 10 uM by sulforhodamine B assay; conditions: read-out: Activity
# [35] = system: ACHN; test: Growth inhibition of human ACHN cells assessed as cell growth at 10 uM by sulforhodamine B assay; conditions: read-out: Activity
# [36] = system: 786-0; test: Growth inhibition of human 786-0 cells assessed as cell growth at 10 uM by sulforhodamine B assay; conditions: read-out: Activity
# [37] = system: OVCAR-3; test: Growth inhibition of human OVCAR3 cells assessed as cell growth at 10 uM by sulforhodamine B assay; conditions: read-out: Activity
# [38] = system: UACC-62; test: Growth inhibition of human UACC62 cells assessed as cell growth at 10 uM by sulforhodamine B assay; conditions: read-out: Activity
# [39] = system: SK-MEL-5; test: Growth inhibition of human SK-MEL-5 cells assessed as cell growth at 10 uM by sulforhodamine B assay; conditions: read-out: Activity
# [40] = system: LOX IMVI; test: Growth inhibition of human LOXIMVI cells assessed as cell growth at 10 uM by sulforhodamine B assay; conditions: read-out: Activity
# [41] = system: U-251; test: Growth inhibition of human U251 cells assessed as cell growth at 10 uM by sulforhodamine B assay; conditions: read-out: Activity
# [42] = system: SF-539; test: Growth inhibition of human SF539 cells assessed as cell growth at 10 uM by sulforhodamine B assay; conditions: read-out: Activity
# [43] = system: KM12; test: Growth inhibition of human KM12 cells assessed as cell growth at 10 uM by sulforhodamine B assay; conditions: read-out: Activity
# [44] = system: HT-29; test: Growth inhibition of human HT-29 cells assessed as cell growth at 10 uM by sulforhodamine B assay; conditions: read-out: Activity
# [45] = system: NCI-H322M; test: Growth inhibition of human NCI-H322M cells assessed as cell growth at 10 uM by sulforhodamine B assay; conditions: read-out: Activity
# [46] = system: NCI-H23; test: Growth inhibition of human NCI-H23 cells assessed as cell growth at 10 uM by sulforhodamine B assay; conditions: read-out: Activity
# [47] = system: NCI-H226; test: Growth inhibition of human NCI-H226 cells assessed as cell growth at 10 uM by sulforhodamine B assay; conditions: read-out: Activity
# [48] = system: HOP-92; test: Growth inhibition of human HOP92 cells assessed as cell growth at 10 uM by sulforhodamine B assay; conditions: read-out: Activity
# [49] = Growth inhibition of human EKVX cells assessed as cell growth at 10 uM by sulforhodamine B assay; conditions: read-out: Activity
compound,measurement,setting,value
COc1cc(/C=C2\C[C@]3(C)[C@H]4CC=C5[C@@H]6CC(C)(C)C[C@@H](O)[C@]6(C(=O)O)CC[C@@]5(C)[C@]4(C)CC[C@H]3C(C)(C)C2=O)ccc1O,growth at 10 µM,[1],71.2%
same,inhibition of growth at 10 µM,[2],18.9%
same,inhibition of growth at 10 µM,[3],< 10%
same,inhibition of growth at 10 µM,[4],< 10%
same,inhibition of growth at 10 µM,[5],22.5%
same,inhibition of growth at 10 µM,[6],< 10%
same,inhibition of growth at 10 µM,[7],27.8%
same,inhibition of growth at 10 µM,[8],24.1%
same,inhibition of growth at 10 µM,[9],21.2%
same,inhibition of growth at 10 µM,[10],< 10%
same,inhibition of growth at 10 µM,[11],< 10%
same,inhibition of growth at 10 µM,[12],< 10%
same,inhibition of growth at 10 µM,[13],< 10%
same,inhibition of growth at 10 µM,[14],< 10%
same,inhibition of growth at 10 µM,[15],< 10%
same,inhibition of growth at 10 µM,[16],15.3%
same,inhibition of growth at 10 µM,[17],17.9%
same,inhibition of growth at 10 µM,[18],< 10%
same,inhibition of growth at 10 µM,[19],< 10%
same,inhibition of growth at 10 µM,[20],< 10%
same,inhibition of growth at 10 µM,[21],16%
same,inhibition of growth at 10 µM,[22],< 10%
same,inhibition of growth at 10 µM,[23],< 10%
same,inhibition of growth at 10 µM,[24],19.2%
same,inhibition of growth at 10 µM,[25],28.2%
same,inhibition of growth at 10 µM,[26],12.9%
same,growth at 10 µM,[27],81.1%
same,growth at 10 µM,[28],106%
same,growth at 10 µM,[29],94%
same,growth at 10 µM,[30],97.9%
same,growth at 10 µM,[31],77.5%
same,growth at 10 µM,[32],72.2%
same,growth at 10 µM,[33],87.5%
same,growth at 10 µM,[34],109%
same,growth at 10 µM,[35],85.6%
same,growth at 10 µM,[36],102%
same,growth at 10 µM,[37],106%
same,growth at 10 µM,[38],75%
same,growth at 10 µM,[39],88.1%
same,growth at 10 µM,[40],88.4%
same,growth at 10 µM,[41],84.7%
same,growth at 10 µM,[42],96.1%
same,growth at 10 µM,[43],84%
same,growth at 10 µM,[44],85.5%
same,growth at 10 µM,[45],97.5%
same,growth at 10 µM,[46],85%
same,growth at 10 µM,[47],100%
same,growth at 10 µM,[48],70.9%
same,growth at 10 µM,[49],88.5%
CC1(C)C[C@@H](O)[C@]2(C(=O)O)CC[C@]3(C)C(=CC[C@@H]4[C@@]5(C)CC[C@H](O)C(C)(C)[C@@H]5CC[C@]43C)[C@@H]2C1,growth at 10 µM,[1],94%
same,inhibition of growth at 10 µM,[2],< 10%
same,inhibition of growth at 10 µM,[3],< 10%
same,inhibition of growth at 10 µM,[4],< 10%
same,inhibition of growth at 10 µM,[5],< 10%
same,inhibition of growth at 10 µM,[6],< 10%
same,inhibition of growth at 10 µM,[7],23.5%
same,inhibition of growth at 10 µM,[8],13.9%
same,inhibition of growth at 10 µM,[9],15.2%
same,inhibition of growth at 10 µM,[10],< 10%
same,inhibition of growth at 10 µM,[11],< 10%
same,inhibition of growth at 10 µM,[12],< 10%
same,inhibition of growth at 10 µM,[13],< 10%
same,inhibition of growth at 10 µM,[14],< 10%
same,inhibition of growth at 10 µM,[15],< 10%
same,inhibition of growth at 10 µM,[16],< 10%
same,inhibition of growth at 10 µM,[17],< 10%
same,inhibition of growth at 10 µM,[18],< 10%
same,inhibition of growth at 10 µM,[19],< 10%
same,inhibition of growth at 10 µM,[20],< 10%
same,inhibition of growth at 10 µM,[21],< 10%
same,inhibition of growth at 10 µM,[22],< 10%
same,inhibition of growth at 10 µM,[23],< 10%
same,inhibition of growth at 10 µM,[24],< 10%
same,inhibition of growth at 10 µM,[25],12.4%
same,inhibition of growth at 10 µM,[26],22%
same,growth at 10 µM,[27],93%
same,growth at 10 µM,[28],90.3%
same,growth at 10 µM,[29],102%
same,growth at 10 µM,[30],98.6%
same,growth at 10 µM,[31],96.4%
same,growth at 10 µM,[32],76.5%
same,growth at 10 µM,[33],89.5%
same,growth at 10 µM,[34],112%
same,growth at 10 µM,[35],102%
same,growth at 10 µM,[36],90.7%
same,growth at 10 µM,[37],101%
same,growth at 10 µM,[38],88.2%
same,growth at 10 µM,[39],98.7%
same,growth at 10 µM,[40],89%
same,growth at 10 µM,[41],91.8%
same,growth at 10 µM,[42],106%
same,growth at 10 µM,[43],90.1%
same,growth at 10 µM,[44],109%
same,growth at 10 µM,[45],99%
same,growth at 10 µM,[46],102%
same,growth at 10 µM,[47],107%
same,growth at 10 µM,[48],103%
same,growth at 10 µM,[49],104%
